Laboratory results reported in patent publication US20200071316A1, “ACTIVATORS OF THE RETINOIC ACID INDUCIBLE GENE "RIG-I" PATHWAY AND METHODS OF USE THEREOF” (Kineta Immuno-Oncology LLC, priority 2018, published 2020).
Marks after values point to notes of the source that are not given here.

Assays:
[1] = test system: CXCL10 secretion by CT26 cells; assay: RIG-I dependent CXCL10 secretion by CT26 colon carcinoma cells (ELISA); assay type: cell-based, murine; conditions: 24 h
How it was run: (§1)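 Murine CT26 colon carcinoma cells, and CRISPR-generated RIG-I knockout CT26 cells, were seeded at 1×10^4 cells/well and grown 24 h at 37 °C, 5% CO2, then treated with compounds at 5 to 20 μM. CXCL10 in supernatants was measured by ELISA 24 h after stimulation.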

[2] = test system: THP1-Lucia ISG IRF3 −/− cells; assay: IRF3-deficient THP1-Lucia ISG IRF3 −/− reporter assay (counter-screen); assay type: cell-based; conditions: Homo sapiens, 18 h after stimulation, read-out: THP1 ISG IRF3 −/−: fold increase of luciferase activity over background; for fold induction at 5 µM: 5 μM compound (**); for fold induction at 10 µM: 10 μM compound
How it was run: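 PMA-differentiated (100 ng/ml) reporter cells carrying ISRE/ISG54 minimal promoter-driven secreted luciferase were stimulated with compounds at 5–20 μM (mostly 10 μM). Luciferase measured 18 h later and expressed as fold increase over untreated background, binned from "−" (<2.4-fold) to "+++++" (≥40-fold).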

[3] = test system: RIG-I deficient CT26 RIG-1−/− cells; assay: CXCL10 secretion in RIG-I deficient CT26 RIG-1−/− cells (ELISA); assay type: cell-based, murine; conditions: 24 h
How it was run: as §1

[4] = test system: IRF3 signaling pathway (IRF-inducible ISG54 promotor) in THP1-Lucia ISG cells; assay: THP1-Lucia ISG reporter assay: induction of IRF3-dependent luciferase activity; assay type: cell-based; conditions: Homo sapiens, PMA-differentiated cells, 18 h after stimulation, read-out: THP1 ISG: fold increase of IRF3-dependent luciferase activity over background; for fold induction at 5 µM: 5 μM compound (**); for fold induction at 10 µM: 10 μM compound
How it was run: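 PMA-differentiated (100 ng/ml) reporter cells, parental and IRF3−/−, stimulated with compounds at 5–20 μM (mostly 10 μM). Secreted luciferase measured 18 h later. Scored as fold increase over untreated background in bands from "−" (<2.4-fold) to "+++++" (≥40-fold).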

Row | SMILES | CXCL10 secretion by CT26 cells ([1]; 5 μM compound (**)) | fold induction at 5 µM [2] | CXCL10 secretion by CT26 RIG-I −/− cells ([3]; 5 μM compound (**)) | fold induction at 5 µM [4] | CXCL10 secretion by CT26 cells ([1]; 10 μM compound) | fold induction at 10 µM [2] | CXCL10 secretion by CT26 RIG-I −/− cells ([3]; 10 μM compound) | fold induction at 10 µM [4] | fold induction at 20 µM ([2]; 20 μM compound (*)) | fold induction at 20 µM ([4]; 20 μM compound (*))
1 | O=C(Nc1nc2ccc([N+](=O)[O-])cc2s1)c1cc2ccccc2cc1OCCCCN1CCOCC1 [Example 23, 3-[4-(morpholin-4-yl)butoxy]-N-(6-nitro-1,3-benzothiazol-2-yl)naphthalene-2-carboxamide] | ++++** (“++++” indicates 800 to 1599 pg/mL) | < 2.4 | −** (“−” indicates less than 100 pg/mL) | 5 to 9.9 | – | – | – | – | – | –
2 | O=C(Nc1nc2ccc(Cc3ccccc3)cc2s1)c1cc2ccccc2cc1OCCN1CCOCC1 [Example 18, N-(6-benzyl-1,3-benzothiazol-2-yl)-3-[2-(morpholin-4-yl)ethoxy]naphthalene-2-carboxamide] | – | – | – | – | + (“+” indicates 100-199 pg/mL) | < 2.4 | − (“−” indicates less than 100 pg/mL) | 2.4 to 4.9 | – | –
3 | CS(=O)(=O)c1ccc2nc(NC(=O)c3cc4ccccc4cc3OCCN3CCOCC3)sc2c1 [Example 44, N-(6-methanesulfonyl-1,3-benzothiazol-2-yl)-3-[2-(morpholin-4-yl)ethoxy]naphthalene-2-carboxamide] | ++** (“++” indicates 200-399 pg/mL) | – | −** (“−” indicates less than 100 pg/mL) | – | – | < 2.4 | – | < 2.4 | – | –
4 | O=C(Nc1cc2ccc(S(=O)(=O)N3CCCC3)cc2s1)c1ccc(-c2ccccc2)cc1OCCN1CCOCC1 [Example 71, 3-[2-(morpholin-4-yl)ethoxy]-N-[6-(pyrrolidine-1-sulfonyl)-1-benzothiophen-2-yl]-[1,1′-biphenyl]-4-carboxamide] | – | – | – | – | − (“−” indicates less than 100 pg/mL) | < 2.4 | − (“−” indicates less than 100 pg/mL) | < 2.4 | – | –
5 | O=C(Nc1nc2ccc(S(=O)(=O)N3CCCC3)cc2s1)c1cc2ccccc2cc1OCCCCN1CCOCC1 [Example 31, 3-[4-(morpholin-4-yl)butoxy]-N-[6-(pyrrolidine-1-sulfonyl)-1,3-benzothiazol-2-yl]naphthalene-2-carboxamide] | – | – | – | – | +++++ (“+++++” indicates greater than or equal to 1600 pg/ml) | < 2.4 | − (“−” indicates less than 100 pg/mL) | 10 to 19 | – | –
6 | O=C(Cc1ccc2nc(NC(=O)c3ccc4ccccc4c3)sc2c1)NC1CC1 [Example 12, N-{6-[(cyclopropyl-carbamoyl)methyl]-1,3-benzothiazol-2-yl}naphthalene-2-carboxamide] | – | – | – | – | +++ (“+++” indicates 400-799 pg/mL) | – | − (“−” indicates less than 100 pg/mL) | – | < 2.4 | 2.4 to 4.9
7 | O=C(Nc1cc2ccc(S(=O)(=O)N3CCCC3)cc2s1)c1cc2c(cc1OCCN1CCOCC1)OCO2 [Example 75] | – | – | – | – | ++ (“++” indicates 200-399 pg/mL) | < 2.4 | − (“−” indicates less than 100 pg/mL) | 5 to 9.9 | – | –
8 | Cn1ccc2cc(OCCN3CCOCC3)c(C(=O)Nc3nc4ccc(S(=O)(=O)N5CCCC5)cc4s3)cc21 [Example 67, 1-methyl-5-[2-(morpholin-4-yl)ethoxy]-N-[6-(pyrrolidine-1-sulfonyl)-1,3-benzothiazol-2-yl]-1H-indole-6-carboxamide] | – | – | – | – | ++++ (“++++” indicates 800 to 1599 pg/mL) | < 2.4 | − (“−” indicates less than 100 pg/mL) | 20 to 39 | – | –
9 | COC(=O)c1ccc2nc(NC(=O)c3cc4ccccc4cc3OCCCCN3CCOCC3)sc2c1 [Example 66, methyl 2-{3-[4-(morpholin-4-yl)butoxy]naphthalene-2-amido}-1,3-benzothiazole-6-carboxylate] | ++** (“++” indicates 200-399 pg/mL) | < 2.4 | −** (“−” indicates less than 100 pg/mL) | 5 to 9.9 | – | – | – | – | – | –
